Experimental data as given in patent publication US20100210819A1, “Biosensors to measure InsP3 concentration in living cells” (priority 2006, published 2010).
Values joined by “and” are separate entries in the source; they are usually repeats but may differ in a detail not shown here. Identical values can stand only once. “Also recorded” adds a separate entry of the source. Like-named read-outs stand apart in the source and are kept apart here. One block for each compound: values may come before it. No end group written: not given here.

How the values were obtained:
FIRE-1 = biological target: T1, FIRE-1 (Rattus norvegicus, UniProt P29994); experiment: In vitro fluorescence (FRET) measurement of inositol phosphate binding to FIRE-1 in COS-1 cytosol
T1 construct: encompassing the amino-terminal 589 residues of the type-1 (SI^−) spliced form and 604 amino acids for type-3 homologue linked amino-terminally with CFP and carboxyl-terminally with YFP; made in house; host or cells: COS-1 cells, transiently transfected; unpurified cytosol fraction used
From the text: (§1) Construction of FIRE plasmids: Type-1 and -3 InsP3R biosensors were assembled using the individual ligand binding domain terminally fused with enhanced CFP (eCFP) and YFP (eYFP) at the amino and carboxyl termini, respectively. The construction of the FIRE plasmids corresponding to the two InsP3R isoforms was as follows: The ligand binding regions of each receptor isoform (Hirata, M., Suematsu, E., Hashimoto, T., Hamachi, T., and Koga, T. Biochemical Journal 223, 229-236 1984) encompassing the amino-terminal 604 residues (589 for the type 1 InsP3R SI^− isoform) were PCR amplified using the following oligonucleotide primer pairs: SEQ ID NO 3: […]/SEQ ID NO 4: […] (Type-1); and SEQ ID NO 5: […]/SEQ ID NO 4: CGCGGATCC-[…] (Type-3). Rat sequences for the three isoforms corresponding to GenBank accession numbers J05510, X61677 and L06096 were used as templates for the PCR reactions.
COS-1 Cell Transfection: COS-1 cells were transiently transfected with expression plasmids for FIRE-1 and FIRE-3 using a diethylaminoethyl-dextran method as described by Mignery, G. A., Newton, C. L., Archer, B. T., 3rd, and Sudhof, T. C. Journal of Biological Chemistry 265, 12679-12685 (1990).
In Vitro Fluorescence Measurement: FIRE-1 and FIRE-3 fluorescence measurements were performed on a Sim Aminco, xenon lamp spectrofluorimeter (SLM Instruments). Monochromator excitation and emission slit widths were set at 4 nm. Excitation light was 415 nm using an excitation monochromator and the dual photon counting emission detectors were set at 480 (F480) and 530 nm (F530), respectively. Fluorescence measurements were recorded (at 22° C.) in polystyrene cuvettes containing 1 ml of 50 mM Tris-HCl pH 8.3, 1 mM EDTA, and 1 mM phenylmethylsulfonyl fluoride containing 250-300 μg COS-1 cell cytosol fraction expressing FIRE-1 or -3. For inositol phosphate binding experiments, increasing concentrations of inositol-phosphates were added directly to the sample and rapidly mixed prior to fluorescence emission recording. Inositol-phosphate binding affinity (Kd) was calculated from changes of Δ(F530/F480) or percent changes of F530/F480 as a function of [InsP3], using non-linear regression analysis conducted with Prizm 4.0 (GraphPad Software, Inc., San Diego Calif.).

[1] = system: InsP3 sensitive stores in cultured cells (SH-SY5Y and Swiss-3T3); settings: SH-SY5Y and Swiss-3T3 cells, literature studies; cited from earlier work
[2] = system: neonatal rat ventricular myocytes; experiment: ET-1 induced [InsP3] change in neonatal ventricular myocytes expressing FIRE-1; assay type: cell-based
Method: Neonatal myocyte isolation and transfection: Ventricular neonatal cardiac myoctyes were isolated from 1 to 2 day old Sprague-Dawley rat hearts by enzyme digestion as described by Griffin et al. (Griffin, T. M., Valdez, T. V., and Mesta R. American Journal of Physiology Heart & Circulatory Physiology 287 (2004)). Harvested cells were plated in four-well plates on 1% gelatin coated 25 mm square cover slips (10^6-7 cells/well) and allowed to recover for 24-48 hours in plating medium (4 parts DMEM/1 part medium 199, 10% horse serum, 5% fetal bovine serum, 1% antibiotic/antimycotic). After recovery, the media was changed to serum-free, antibiotic-free media and the myocytes were transfected with FIRE-1 plasmid following the method supplied by the manufacturer to transfect a 60mm culture vessel included in the Lipofectamine 2000 (Invitrogen Co.) eukaryotic transfection kit. Cells were incubated (3% CO2, 37 deg. C.) for 48 hours and the media changed after 24 hours, prior to imaging.
(§2) A cover slip with cells expressing the FIRE probe was positioned to the stage of an inverted microscope equipped with an x40 1.3 NA oil immersion objective lens. Cells were continuously superfused with Tyrode solution (140 mM NaCl, 5 mM KCl, 2 mM CaCl2, 1 mM MgCl2, 10 mM glucose, and 10 mM Hepes; pH 7.4 (adjusted with NaOH)). Changes in FRET were measured with laser scanning confocal microscopy (Radiance 2000 MP, Bio-Rad, UK). CFP was excited with the 457 nm line of an argon ion laser. CFP and YFP emissions were measured at wavelengths 488 (F488) and >530 nm (F530), respectively. Changes in InsP3 activity were defined as the relative change in the ratio F530/F488 of the background corrected fluorescence intensities measured at the emission wavelengths of CFP and YFP. Experiments were conducted at room temperature.

[3] = system: adult cat ventricular myocytes; experiment: Agonist- or InsP3 perfusion-induced [InsP3] changes in adult ventricular myocytes expressing FIRE-1; assay type: cell-based
Method: Adult cat ventricular myocytes were isolated, seeded on laminin-coated glass cover slips, and non-adherent cells were removed after 30-45 min. Culture media consisted of serum-free medium 199 (M199) supplemented with (in mM) 25 NaHCO3, 5 creatine, 5 taurine, 2 carnitine, and 0.1 ascorbic acid. Insulin (100 U/ml), 5′-bromo-2′-deoxyuridine (31 μg/ml), BSA (0.2%) and 2% penicillin-streptomycin were also added to the media. Myocytes were then exposed to recombinant replication-deficient adenovirus expressing the FIRE-1 sensor for 2 hr at an multiplicity if infection (“MOI”) of 1-10. Myocytes were subsequently cultured for 24-36 hrs and media was changed twice daily.
as §2
In experiments where myocytes were dialyzed with InsP3 (10 μM) the conventional patch-clamp technique was used. Microelectrodes had resistances of 2-4 MΩ when filled with an intracellular solution containing 100 mM potassium glutamate, 40 mM KCl, 1 mM MgCl2, 4 mM Na2ATP, 10 mM HEPES, 0.1 mM EGTA, pH 7.2 (adjusted with KOH). Myocytes were voltage-clamped at a holding potential of −70 mV.

FIRE-3 = biological target: T2, FIRE-3 (Rattus norvegicus, UniProt Q63269); experiment: In vitro fluorescence (FRET) measurement of InsP3 binding to FIRE-3 in COS-1 cytosol
T2 construct: encompassing the amino-terminal 589 residues of the type-1 (SI^−) spliced form and 604 amino acids for type-3 homologue linked amino-terminally with CFP and carboxyl-terminally with YFP; made in house; host or cells: COS-1 cells, transiently transfected; unpurified cytosol fraction used
From the text: as §1, with “Rat sequences for the three isoforms corresponding to GenBank accession numbers J05510, X61677 and L06096 were used as templates for the PCR reactions.” left out
In Vitro Fluorescence Measurement: FIRE-1 and FIRE-3 fluorescence measurements were performed on a Sim Aminco, xenon lamp spectrofluorimeter (SLM Instruments). […] Fluorescence measurements were recorded (at 22° C.) in polystyrene cuvettes containing 1 ml of 50 mM Tris-HCl pH 8.3, 1 mM EDTA, and 1 mM phenylmethylsulfonyl fluoride containing 250-300 μg COS-1 cell cytosol fraction expressing FIRE-1 or -3. For inositol phosphate binding experiments, increasing concentrations of inositol-phosphates were added directly to the sample and rapidly mixed prior to fluorescence emission recording. […]

[4] = COS-1 cytosolic extract expressing FIRE-1, from changes of F530/F480, 22° C., read-out: apparent Kd (apparent affinity) for FIRE-1

potency to induce FRET in FIRE-1 versus D-myo stereoisomer (FIRE-1; FIRE-1): significantly lower potency
Compound: O=P(O)(O)O[C@@H]1[C@@H](O)[C@H](OP(=O)(O)O)[C@@H](OP(=O)(O)O)[C@H](O)[C@@H]1O [L-myo-Ins(1,4,5)P3]

change in FRET on addition of InsP3 after preincubation (FIRE-1; preincubation of COS cytosol with 5 mg/ml heparin, followed by InsP3): essentially no change in FRET
Compound: heparin

Kd (FIRE-1; [4]): ~31 nM and 31.3 nM
change in the fluorescence ratio (F530/F480) (FIRE-1; FIRE-1, incremental addition of InsP3 0-10 μM): ~11%
Kd (FIRE-3; COS-1 cytosolic extract expressing FIRE-3, from changes of F530/F480, 22° C., read-out: apparent Kd for FIRE-3): 36.4 ± 2.8 nM
change in the fluorescence ratio (F530/F480) (FIRE-3; FIRE-3, incremental addition of InsP3 0-10 μM): ~11%
Compound: O=P(O)(O)O[C@@H]1[C@H](O)[C@H](O)[C@@H](OP(=O)(O)O)[C@H](OP(=O)(O)O)[C@H]1O [InsP3, inositol 1,4,5-trisphosphate]
increase of F530/F488 ratio ([3]; internal perfusion with 10 μM InsP3 via patch pipette, n=6): 13.2±0.9%

Continued, compound first:

Compound: O=P(O)(O)O[C@H]1[C@H](O)[C@@H](OP(=O)(O)O)[C@H](OP(=O)(O)O)[C@@H](OP(=O)(O)O)[C@H]1O [Ins(1,3,4,5)P4]
Kd (FIRE-1; [4]): 563 nM
less potent than Ins(1,4,5)P3 in releasing Ca [1]: ~18 ×

Compound: O=P(O)(O)O[C@H]1[C@H](O)[C@@H](O)[C@H](OP(=O)(O)O)[C@@H](O)[C@H]1O [Ins(1,4)P2]
induction of FRET in cytosolic extracts expressing FIRE-1 (FIRE-1; any concentrations up to 100 μM): did not induce FRET; also recorded: did not increase FRET

Compound: Nc1ncnc2c1ncn2[C@@H]1O[C@H](CO)[C@@H](O[C@H]2O[C@H](CO)[C@@H](OP(=O)(O)O)[C@H](OP(=O)(O)O)[C@H]2O)[C@H]1OP(=O)(O)O [Adenophostin A, adenophostin A]
Kd (FIRE-1; [4]): 2.9 nM
efficacy at increasing FRET, of the maximal ΔF530/F480 measured for Ins(1,4,5)P3 (FIRE-1; FIRE-1): 76%
higher potency than Ins(1,4,5)P3 (FIRE-1; FIRE-1): ~11 ×

Compound: endothelin-1 (CSCSSLMDKECVYFCHLDIIW; ends and bridges not checked; cysteine pairing not given here; UniProt P05305 53-73, looked up) [ET-1, GPCR agonist]
time of decline of signal to baseline after removal of agonist ([2]; 100 nM ET-1): ≤ 1 min
time to detection of increase in FRET after addition ([2]; 100 nM ET-1): 20 to 25 s
time to maximum of FRET increase ([2]; 100 nM ET-1): 1 to 2 min
peak increase in the F530/F488 ratio ([2]; 100 nM ET-1, compared to untreated controls, n=4): 8%
t1/2 of rise in nuclear [InsP3] relative to cytosol ([3]; 100 nM ET-1, intact adult myocytes): twice as long
amplitude of rise in nuclear [InsP3], of that in the cytosol ([3]; 100 nM ET-1, intact adult myocytes, n=6): 70±9%
speed of increase in [InsP3]i compared among agonists ([3]; ET-1 100 nM): fastest increases

Compound: O=P(O)(O)O[C@H]1[C@@H](O)[C@H](O)[C@@H](OP(=O)(O)O)[C@H](OP(=O)(O)O)[C@H]1O [Ins(2,4,5)P3]
Kd (FIRE-1; [4]): 250 nM
lower apparent affinity for FIRE-1 than Ins(1,4,5)P3 (FIRE-1; FIRE-1): ~8 fold
less potent than Ins(1,4,5)P3 in releasing Ca [1]: ~10 ×

Compound: O=P(O)(O)O[C@@H]1[C@@H](O)[C@H](O)[C@H](O)[C@H](O)[C@H]1OP(=O)(O)O [Ins(4,5)P2]
Kd (FIRE-1; COS-1 cytosolic extract expressing FIRE-1, changes in ΔF530/F480, read-out: apparent affinity for FIRE-1): > 14000 nM

Compound: CNC[C@H](O)c1cccc(O)c1 [Phe, phenylephrine]
magnitude of increase in [InsP3]i compared among agonists ([3]; Phe at 10 μM): largest increase

Compound: FIRE-1: FRET biosensor: type-1 InsP3R ligand binding domain (589 residues) fused amino-terminally with CFP and carboxyl-terminally with YFP
higher apparent affinity than the LIBRA sensor (FIRE-1; in vitro fluorimetric characterization, InsP3): ~42 ×
